Results on 16 compounds are retold here after the supplement of paper PMC11061612.

Common to all, as to assay: Bliss excess, mean over the matrix (fraction); higher = more synergy
Experiment [1] relates to NTERA-2-cl-D1 (Other Solid Carcinomas). The method in brief: (§1)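 Cell lines in DMEM/F12 or RPMI with 10% FBS were plated in 1536-well plates, held 24 hours at 37°C, 5% CO2, then given two-drug dose matrices for 72 hours (DMSO typically 0.2%). Viability was read by CellTiter-Glo 2.0 luminescence and scaled as inhibition from 0 (vehicle wells) to 1 (blank wells). Combination Emax is the second-highest inhibition in the matrix; Bliss excess is observed combination effect minus expected EA + EB − EA·EB, EA and EB being single-agent effects.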

The subject of experiment [2] is CAL-85-1 (Breast Carcinoma). The method in brief:
as §1

Experiment [3] deals with SBC-3 (Small Cell Lung Carcinoma). The method in brief: as §1
Another experiment relates to SK-MEL-24 (Melanoma). The procedure, abridged: as §1
Another experiment deals with NCI-H2452 (Mesothelioma). The procedure, abridged:
as §1

In the next experiment the test system is MG-63 (Osteosarcoma). The method in brief: as §1
A further experiment concerns C32 (Melanoma). The procedure, abridged:
as §1

Experiment [4] deals with OVKATE (Ovarian Carcinoma). The method in brief: as §1

Consider `C=CCn1c(=O)c2cnc(Nc3ccc(N4CCN(C)CC4)cc3)nc2n1-c1cccc(C(C)(C)O)n1` [AZD1775] + CCc1c2c(nc3ccc(O)cc13)-c1cc3c(c(=O)n1C2)COC(=O)[C@]3(O)CC [SN-38] (first compound max 1 µM, partner max 0.3 µM), for which the Bliss excess was 0.0011 in experiment [1]; -0.0337 in experiment [2]; -0.0297 in experiment [3]; -0.103 with SK-MEL-24 (Melanoma); -0.0145 with NCI-H2452 (Mesothelioma); -0.0239 with MG-63 (Osteosarcoma). The Bliss excess with C32 (Melanoma) is -0.0375; in experiment [4], -0.079.
Turning to `C=CCn1c(=O)c2cnc(Nc3ccc(N4CCN(C)CC4)cc3)nc2n1-c1cccc(C(C)(C)O)n1` [AZD1775] + Nc1ccn([C@@H]2O[C@H](CO)[C@@H](O)C2(F)F)c(=O)n1 [Gemcitabine] (first compound max 1 µM, partner max 0.3 µM), the Bliss excess in experiment [1] is -0.062; in experiment [2], 0.0733; in experiment [3] it was -0.0105; in the experiment on SK-MEL-24 (Melanoma), 0.0069; with NCI-H2452 (Mesothelioma), -0.0727; with MG-63 (Osteosarcoma), 0.0581. For the same compound, the Bliss excess was -0.0569 in the experiment with C32 (Melanoma) and -0.0681 in experiment [4].
Take `CN(CCO)CC[C@H](CSc1ccccc1)Nc1ccc(S(=O)(=O)NC(=O)c2ccc(N3CCC([C@@H](O)c4ccccc4-c4ccc(Cl)cc4)CC3)cc2)cc1S(=O)(=O)C(F)(F)F` [AZD4320] + CS(=O)(=O)CCNCc1ccc(-c2ccc3ncnc(Nc4ccc(OCc5cccc(F)c5)c(Cl)c4)c3c2)o1 [Lapatinib] (first compound max 1 µM, 7x7, partner max 10 µM): the Bliss excess in experiment [1] is -0.026; in experiment [2], 0.0241; in experiment [3] it was 0.052; in the experiment on SK-MEL-24 (Melanoma), 0.0316; in the experiment on NCI-H2452 (Mesothelioma), -0.019; in the experiment on MG-63 (Osteosarcoma) it was -0.0176. In addition, the Bliss excess in the experiment with C32 (Melanoma) is -0.0269; in experiment [4] it was -0.0082.
As to `Cc1c2c(nn1C)CSCc1cc(n(C)n1)CSc1cc(c3ccccc3c1)OCCCc1c(C(=O)O)n(C)c3c-2c(Cl)ccc13` [AZD5991] + CS(=O)(=O)CCNCc1ccc(-c2ccc3ncnc(Nc4ccc(OCc5cccc(F)c5)c(Cl)c4)c3c2)o1 [Lapatinib] (first compound max 1 µM, 7x7, partner max 10 µM), the Bliss excess in experiment [1] is -0.0334; in experiment [2], -0.0213; in experiment [3], -0.0235; in the experiment with SK-MEL-24 (Melanoma), -0.0651; in the experiment with NCI-H2452 (Mesothelioma), -0.0576; in the experiment on MG-63 (Osteosarcoma), -0.0352. In addition, the results for the Bliss excess (in the experiment with C32 (Melanoma); in experiment [4]) were -0.0014 and -0.0552, respectively.
Turning to `Cc1c2c(nn1C)CSCc1cc(n(C)n1)CSc1cc(c3ccccc3c1)OCCCc1c(C(=O)O)n(C)c3c-2c(Cl)ccc13` [AZD5991] + Nc1ccn([C@@H]2O[C@H](CO)[C@@H](O)C2(F)F)c(=O)n1 [Gemcitabine] (first compound max 1 µM, 7x7, partner max 0.3 µM), the Bliss excess in experiment [1] is -0.0695; in experiment [2] it was -0.027; in experiment [3], 0.0059; with SK-MEL-24 (Melanoma), -0.0245; in the experiment with NCI-H2452 (Mesothelioma) it was -0.0642; with MG-63 (Osteosarcoma), -0.071. Moreover, the Bliss excess with C32 (Melanoma) was -0.0117; in experiment [4] it was -0.0373.
As to `C[C@@H]1COCCN1c1cc(C2([S@](C)(=N)=O)CC2)nc(-c2ccnc3[nH]ccc23)n1` [AZD6738] + C1CC(C1)(C(=O)[O-])C(=O)[O-].N.N.[Pt+2] [Carboplatin] (first compound max 10 µM, 7x7, partner max 10 µM), the Bliss excess is -0.0651 in experiment [1]; -0.0551 in experiment [2]; -0.031 in experiment [3]; -0.0748 in the experiment with SK-MEL-24 (Melanoma); -0.0212 with NCI-H2452 (Mesothelioma); -0.0391 with MG-63 (Osteosarcoma). Also, the Bliss excess with C32 (Melanoma) was -0.0133; in experiment [4], -0.0642.
For `C[C@@H](Nc1cc(F)cc(F)c1)c1cc(C(=O)N(C)C)cc2c(=O)cc(N3CCOCC3)oc12` [AZD8186] + C1CN(CCC1(C(=O)N[C@@H](CCO)C2=CC=C(C=C2)Cl)N)C3=NC=NC4=C3C=CN4 [AZD5363] (first compound max 10 µM, 7x7, partner max 10 µM), the Bliss excess in experiment [1] is -0.0573; in experiment [2] it was -0.0285; in experiment [3], 0.0272; in the experiment with SK-MEL-24 (Melanoma), -0.0455; in the experiment with NCI-H2452 (Mesothelioma) it was -0.0466; in the experiment on MG-63 (Osteosarcoma) it was -0.0376. Besides, the figures for the Bliss excess (with C32 (Melanoma); in experiment [4]) were -0.0235 and -0.0281, respectively.
As to `C[C@@H](Nc1cc(F)cc(F)c1)c1cc(C(=O)N(C)C)cc2c(=O)cc(N3CCOCC3)oc12` [AZD8186] + CC(=O)c1c(C)c2cnc(Nc3ccc(N4CCNCC4)cn3)nc2n(C2CCCC2)c1=O [Palbociclib] (first compound max 10 µM, 7x7, partner max 10 µM), the Bliss excess in experiment [1] was 0.0104; in experiment [2] it was -0.0529; in experiment [3] it was 0.0742; in the experiment on SK-MEL-24 (Melanoma), 0.0814; in the experiment on NCI-H2452 (Mesothelioma), -0.0353; in the experiment on MG-63 (Osteosarcoma) it was 0.0535. The Bliss excess with C32 (Melanoma) was 0.04; in experiment [4], -0.0096.
As for `C[C@@H](Oc1cc(-c2cnn(C3CCNCC3)c2)cnc1N)c1c(Cl)ccc(F)c1Cl` [Crizotinib] + CC1=C(C(=CC=C1)Cl)NC(=O)C2=CN=C(S2)NC3=CC(=NC(=N3)C)N4CCN(CC4)CCO [Dasatinib] (first compound max 10 µM, 7x7, partner max 2 µM), the Bliss excess is 0.0073 in experiment [1]; 0.001 in experiment [2]; 0.0493 in experiment [3]; -0.0523 in the experiment on SK-MEL-24 (Melanoma); 0.0069 with NCI-H2452 (Mesothelioma); 0.0498 in the experiment on MG-63 (Osteosarcoma). Also, the Bliss excess is -0.0461 with C32 (Melanoma) and 0.06 in experiment [4].
Regarding `C[C@@H](Oc1cc(-c2cnn(C3CCNCC3)c2)cnc1N)c1c(Cl)ccc(F)c1Cl` [Crizotinib] + Cn1cnc2c(F)c(Nc3ccc(Br)cc3Cl)c(C(=O)NOCCO)cc21 [Selumetinib] (first compound max 10 µM, 7x7, partner max 10 µM), the Bliss excess was -0.027 in experiment [1]; -0.055 in experiment [2]; -0.0502 in experiment [3]; -0.0034 in the experiment on SK-MEL-24 (Melanoma); -0.0494 in the experiment on NCI-H2452 (Mesothelioma); -0.0017 in the experiment with MG-63 (Osteosarcoma). Moreover, the Bliss excess in the experiment on C32 (Melanoma) is 0.0411; in experiment [4] it was -0.0392.
`CS(=O)(=O)CCNCc1ccc(-c2ccc3ncnc(Nc4ccc(OCc5cccc(F)c5)c(Cl)c4)c3c2)o1` [Lapatinib] + Cn1cnc2c(F)c(Nc3ccc(Br)cc3Cl)c(C(=O)NOCCO)cc21 [Selumetinib] (first compound max 10 µM, 7x7, partner max 10 µM): the Bliss excess in experiment [1] was -0.0125; in experiment [2], 0.0396; in experiment [3], -0.0109; with SK-MEL-24 (Melanoma) it was 0.0129; with NCI-H2452 (Mesothelioma), -0.0363; in the experiment with MG-63 (Osteosarcoma), -0.0863. Also, the Bliss excess with C32 (Melanoma) was -0.0418; in experiment [4], -0.0514.
As for `O=C(c1cc(Cc2n[nH]c(=O)c3ccccc23)ccc1F)N1CCN(C(=O)C2CC2)CC1` [Olaparib] + CC1(C)CCC(CN2CCN(c3ccc(C(=O)NS(=O)(=O)c4ccc(NCC5CCOCC5)c([N+](=O)[O-])c4)c(Oc4cnc5[nH]ccc5c4)c3)CC2)=C(c2ccc(Cl)cc2)C1 [Venetoclax] (first compound max 10 µM, 7x7, partner max 1 µM), the Bliss excess in experiment [1] was -0.0419; in experiment [2], -0.026; in experiment [3], -0.0063; in the experiment on SK-MEL-24 (Melanoma), -0.0534; in the experiment on NCI-H2452 (Mesothelioma), -0.0646; with MG-63 (Osteosarcoma) it was 0.0113. Also, the results for the Bliss excess (in the experiment on C32 (Melanoma); in experiment [4]) were -0.0521 and -0.0355, respectively.
Consider `O=C(c1cc(Cc2n[nH]c(=O)c3ccccc23)ccc1F)N1CCN(C(=O)C2CC2)CC1` [Olaparib] + CN(CC[C@H](CSC1=CC=CC=C1)NC2=C(C=C(C=C2)S(=O)(=O)NC(=O)C3=CC=C(C=C3)N4CCC(CC4)[C@H](C5=CC=CC=C5C6=CC=C(C=C6)Cl)O)S(=O)(=O)C(F)(F)F)CCO [AZD4320] (first compound max 10 µM, 7x7, partner max 1 µM), for which the Bliss excess in experiment [1] is 0.0258; in experiment [2], 0.0221; in experiment [3] it was 0.0197; in the experiment with SK-MEL-24 (Melanoma), -0.0365; in the experiment with NCI-H2452 (Mesothelioma), -0.0697; with MG-63 (Osteosarcoma), -0.0185. For the same compound, the Bliss excess in the experiment on C32 (Melanoma) is -0.0529; in experiment [4], -0.0469.
Take `O=C(c1cc(Cc2n[nH]c(=O)c3ccccc23)ccc1F)N1CCN(C(=O)C2CC2)CC1` [Olaparib] + COc1nnc2ccc(N3CCC(c4ccc(OCCN5CCN(C)C(=O)[C@H]5C)cc4)CC3)nn12 [AZD5153] (first compound max 10 µM, 7x7, partner max 1 µM): the Bliss excess in experiment [1] is -0.127; in experiment [2] it was -0.026; in experiment [3], -0.0786; with SK-MEL-24 (Melanoma), -0.0814; in the experiment on NCI-H2452 (Mesothelioma) it was -0.0361; with MG-63 (Osteosarcoma) it was -0.0749. The Bliss excess in the experiment on C32 (Melanoma) is -0.0595; in experiment [4], -0.0686.
In the case of `Cc1nc(-c2cn3c(n2)-c2ccc(-c4cnn(C(C)(C)C(N)=O)c4)cc2OCC3)n(C(C)C)n1` [Taselisib] + O=C(Nc1ccc2[nH]nc(-c3ccncc3)c2c1)[C@@H]1CCN(CC(=O)N2CCN(c3ccc(-c4ncccn4)cc3)CC2)C1 [SCH772984] (first compound max 10 µM, 7x7, partner max 5 µM), the Bliss excess in experiment [1] is -0.0322; in experiment [2], 0.0682; in experiment [3] it was 0.11; in the experiment with SK-MEL-24 (Melanoma), 0.0017; in the experiment with NCI-H2452 (Mesothelioma), -0.0276; with MG-63 (Osteosarcoma), -0.0764. The results for the Bliss excess (with C32 (Melanoma); in experiment [4]) were 0.0706 and 0.0487, respectively.
Take `CC1(C)CCC(CN2CCN(c3ccc(C(=O)NS(=O)(=O)c4ccc(NCC5CCOCC5)c([N+](=O)[O-])c4)c(Oc4cnc5[nH]ccc5c4)c3)CC2)=C(c2ccc(Cl)cc2)C1` [Venetoclax] + CS(=O)(=O)CCNCc1ccc(-c2ccc3ncnc(Nc4ccc(OCc5cccc(F)c5)c(Cl)c4)c3c2)o1 [Lapatinib] (first compound max 1 µM, 7x7, partner max 10 µM): the Bliss excess is -0.0618 in experiment [1]; -0.044 in experiment [2]; -0.0339 in experiment [3]; -0.0188 in the experiment on SK-MEL-24 (Melanoma); -0.0546 in the experiment on NCI-H2452 (Mesothelioma); 0.0029 in the experiment with MG-63 (Osteosarcoma). Besides, the Bliss excess is -0.0443 in the experiment on C32 (Melanoma) and -0.035 in experiment [4].
